Experimental data taken from patent publication US20030013660A1, “Dioxolane analogs for improved inter-cellular delivery” (Shire BioChem Inc., priority 2000, published 2003).

Legend:
Assay in all cases: 3H-TdR incorporation at 72 hr (24 hr drug exposure, wash, 48 hr)
MCF-7 = type: cell-based, Human; details: Homo sapiens, MCF7, read-out: IC50 in μM (3H-TdR incorporation at 72 hr) MCF-7 24 h, MCF-7 Human Breast Carcinoma, 72 hr assay
Method: (§1) Exposition of 24 hr to drug, wash, incubated for another 48 hr (total of 72 hr assay)
(§2) (3H-Thymidine Incorporation Assay)

H-460 = type: cell-based, Human; details: Homo sapiens, NCI-H460, read-out: IC50 in μM (3H-TdR incorporation at 72 hr) H-460 24 h, H-460 Human Lung Carcinoma, 72 hr assay
Method: as §1, §2

SF-268 = type: cell-based, Human; details: Homo sapiens, SF-268, read-out: IC50 in μM (3H-TdR incorporation at 72 hr) SF-268 24 h, SF-268 Human Central Nervous System Tumor; 24 h drug exposure, 72 hr assay
Method: as §1, §2

CEM/dCK- = type: cell-based; details: for IC50: Homo sapiens, CCRF-CEM, read-out: IC50 in μM (3H-TdR incorporation at 72 hr) CEM/dCK- 24 h, CCRF-CEM deoxycytidine kinase-deficient, 24 h drug exposure, 72 hr assay; for Factor* (Resistance Factor = Ratio of dCK- on Wild-type CCRF-CEM): ratio of IC50 CEM/dCK- to IC50 CCRF-CEM
Method: as §1, §2

CCRF-CEM = type: cell-based; details: Homo sapiens, CCRF-CEM, read-out: IC50 in μM (3H-TdR incorporation at 72 hr) CCRF-CEM 24 h, CCRF-CEM T-cell Leukemia, 72 hr assay
Method: as §1, §2

Row | Structure (SMILES) | IC50 (MCF-7) [µM] | IC50 (H-460) [µM] | IC50 (SF-268) [µM] | IC50 (CEM/dCK-) [µM] | Factor* (Resistance Factor = Ratio of dCK- on Wild-type CCRF-CEM) (CEM/dCK-) | IC50 (CCRF-CEM) [µM]
1 | COC(OC)(OC[C@H]1OC[C@@H](n2ccc(N)nc2=O)O1)c1ccc(C)cc1 [Compound 200, 4-AMINO-1-[2- (DIMETHOXY-#P!-TOLYL- METHOXYMETHYL)- [1,3]DIOXOLAN-4-YL]- 1#H!-PYRIMIDIN-2-ONE] | 1.1 | 0.3 | 0.12 | 72 | 232 | 0.31
2 | CCOC(=O)/C=C/OC[C@H]1OC[C@@H](n2ccc(N)nc2=O)O1 [Compound 201, 3-[4-(4-AMINO-2-OXO-2H- PYRIMIDIN-1-YL)- [1,3]DIOXOLAN-2-YL METHOXY]-ACRYLIC ACID ETHYL ESTER] | 18 | 17 | 7.3 | > 100 | >7 | 14
3 | Nc1ccn([C@@H]2CO[C@H](COC(=S)Sc3ccccc3)O2)c(=O)n1 [Compound 205, DITHIOCARBONIC ACID O- [4-(4-AMINO-2-OXO-2H- PYRIMIDIN-1-YL)- [1,3]DIOXOLAN-2-YL METHYL] ESTER S-PHENYL ESTER] | 0.9 | 0.28 | 0.1 | > 100 | >385 | 0.26
4 | Nc1ccn([C@@H]2CO[C@H](COC(=O)c3ccccc3Cl)O2)c(=O)n1 [Compound 206, 2-CHLORO-BENZOIC ACID 4-(4-AMINO-2-OXO-2#H!- PYRIMIDIN-1-YL)- [1,3]DIOXOLAN-2-YL METHYL ESTER] | 0.056 | 0.012 | 0.043 | 80 | 8,889 | 0.009
5 | Nc1ccn([C@@H]2CO[C@H](COC(=O)c3ccccc3Cc3ccccc3)O2)c(=O)n1 [Compound 220, BIPHENYL-2-CARBOXYLIC ACID 4-(4-AMINO-2-OXO- 2H-PYRIMIDIN-1-YL)- [1,3]DIOXOLAN-2-YL METHYL ESTER] | 0.029 | 0.0034 | 0.042 | > 100 | >28571 | 0.0035
6 | O=C(Nc1ccn([C@@H]2CO[C@H](CO)O2)c(=O)n1)C1(c2ccccc2)CCCCC1 [Compound 225, 1-PHENYL- CYCLOHEXANECARBOXYLIC ACID [1-(2- HYDROXYMETHYL- [1,3]DIOXOLAN-4-YL)-2- OXO-1,2-DIHYDRO- PYRIMIDIN-4-YL]-AMIDE] | 11 | 11 | 43 | > 100 | >113 | 0.88
7 | CC(C)(CCCCCCc1ccccc1)C(=O)Nc1ccn([C@@H]2CO[C@H](CO)O2)c(=O)n1 [Compound 227, 2,2-DIMETHYL-8-PHENYL- OCTANOIC ACID [1-(2- HYDROXYMETHYL- [1,3]DIOXOLAN-4-YL)-2- OXO-1,2-DIHYDRO- PYRIMIDIN-4-YL]-AMIDE] | 0.012 | 0.84 | 3 | 22 | 512 | 0.043
8 | C/C(=N\c1ccn([C@@H]2CO[C@H](CO)O2)c(=O)n1)N(C)C [Compound 228, N′-[1-(2-HYDROXYMETHYL- [1,3]DIOXOLAN-4-YL)-2- OXO-1,2-DIHYDRO- PYRIMIDIN-4-YL]-N,N- DIMETHYL-ACETAMIDINE] | 1.5 | 0.68 | 5.3 | > 100 | >227 | 0.44
9 | CC(C)N(/C=N/c1ccn([C@@H]2CO[C@H](CO)O2)c(=O)n1)C(C)C [Compound 230, N′-[1-(2-HYDROXYMETHYL- [1,3]DIOXOLAN-4-YL)-2- OXO-1,2-DIHYDRO- PYRIMIDIN-4-YL]-N,N- DIISOPROPYL-FORMAMIDINE] | 3.8 | 1.5 | 9.5 | > 100 | >100 | 1
10 | Cc1ccc(C)c(OCCCC(C)(C)C(=O)Nc2ccn([C@@H]3CO[C@H](CO)O3)c(=O)n2)c1 [Compound 234, 5-(2,5-DIMETHYL- PHENOXY)-2,2-DIMETHYL- PENTANOIC ACID [1-(2- HYDROXYMETHYL- [1,3]DIOXOLAN-4-YL)-2- OXO-1,2-DIHYDRO- PYRIMIDIN-4-YL]-AMIDE] | 0.1 | 1.5 | 0.1 | > 100 | >105 | 0.95
11 | C[C@H]1CC[C@@](C)(C(=O)Nc2ccn([C@@H]3CO[C@H](CO)O3)c(=O)n2)C1(C)C [Compound 235, 1,2,2,3-TETRAMETHYL- CYCLOPENTANECARBOXYLIC ACID [1-(2- HYDROXYMETHYL- [1,3]DIOXOLAN-4-YL)-2- OXO-1,2-DIHYDRO- PYRIMIDIN-4-YL]-AMIDE] | 1.1 | 1.6 | 0.38 | 61 | 51 | 1.2
12 | CC(C)(CCCCCCc1ccccc1)C(=O)OC[C@H]1OC[C@@H](n2ccc(N)nc2=O)O1 [Compound 238, 2,2-DIMETHYL-8-PHENYL- OCTANOIC ACID 4-(4- AMINO-2-OXO-2H- PYRIMIDIN-1-YL)- [1,3]DIOXOLAN-2-YL METHYL ESTER] | ≤ 0.0001 | 0.00045 | 0.025 | 59 | 23,600 | 0.0025
13 | CCCCC[C@H]1CC[C@H](C(=O)OC[C@H]2OC[C@@H](n3ccc(N)nc3=O)O2)CC1 [Compound 240, 4-PENTYL- CYCLOHEXANECARBOXYLIC ACID 4-(4-AMINO-2-OXO- 2H-PYRIMIDIN-1-YL)- [1,3]DIOXOLAN-2-YL METHYL ESTER] | ≤ 0.0001 | ≤ 0.0001 | ≤ 0.0001 | 2.5 | ≧25000 | ≤ 0.0001
14 | O=C(Nc1ccn([C@@H]2CO[C@H](CO)O2)c(=O)n1)C(c1ccccc1)c1ccccc1 [Compound 241, N-[1-(2-HYDROXYMETHYL- [1,3]DIOXOLAN-4-YL)-2- OXO-1,2-DIHYDRO- PYRIMIDIN-4-YL]-2,2- DIPHENYL-ACETAMIDE] | 0.17 | 0.047 | 14 | ≥ 100 | ≧74 | 1.4
15 | CC(C)Cc1ccc([C@H](C)C(=O)Nc2ccn([C@@H]3CO[C@H](CO)O3)c(=O)n2)cc1 [Compound 242, N-[1-(2-HYDROXYMETHYL- [1,3]DIOXOLAN-4-YL)-2- OXO-1,2-DIHYDRO- PYRIMIDIN-4-YL]-2-(4- ISOBUTYL-PHENYL)- PROPIONAMIDE] | 0.001 | 0.25 | 1.1 | 93 | 404 | 0.23
16 | CC(C)Cc1ccc([C@H](C)C(=O)OC[C@H]2OC[C@@H](n3ccc(N)nc3=O)O2)cc1 [Compound 243, 2-(4-ISOBUTYL-PHENYL)- PROPIONIC ACID 4-(4- AMINO-2-OXO-2H- PYRIMIDIN-1-YL)- [1,3]DIOXOLAN-2-YL METHYL ESTER] | 0.0005 | 0.0011 | 0.32 | 72 | 2,667 | 0.027
17 | CC(CCCCCCc1ccccc1)C(=O)OC[C@H]1OC[C@@H](n2ccc(N)nc2=O)O1 (stereo partly drawn) [Compound 245, 2-METHYL-8-PHENYL- OCTANOIC ACID 4-(4- AMINO-2-OXO-2H- PYRIMIDIN-1-YL)- [1,3]DIOXOLAN-2-YL METHYL ESTER] | < 0.0001 | < 0.0001 | < 0.0001 | 0.68 | >6800 | < 0.0001
